Reference: US4647685A, “2-alkoxy-1-((2-trialkylaminoethoxy)phosphinyloxy)-alkenes and alkynes, hydroxy inner salts” (Eli Lilly and Company, priority 1985, dated 1987)
Where a name gives a salt, the structure may show the parent alone.

What was measured:
[1] = system: CCRF-CEM cell line; assay: Inhibition of growth of human leukemic cells (CCRF-CEM Cytotoxicity Screen); type: cell-based; conditions: in vitro, read-out: IC50 (concentration giving 50% growth inhibition)
[2] = system: X-5563 (multiple myeloma); assay: Activity against X-5563 (multiple myeloma) tumor maintained in C3H mice; type: in vivo; conditions: I.P. daily for 10 days, tumors measured days 10 to 12
Description: (§1) The following protocol was employed. The tumor was removed from passage animals and minced into 1 to 3 mm square fragments using sterile techniques. Tumor pieces were checked for sterility using both Antibiotic Medium 1 and Brain Heart Infusion (Difco; Detroit, MI). Recipient mice were shaved and tumor pieces were implanted subcutaneously in the axillary region by trocar. Drug therapy on the appropriate schedule was initiated on the day after tumor implant. The compound was dissolved in saline for all experiments. All animals were weighed at the beginning and end of drug treatment. Food and water were provided ad libitum. Each test group contains 5 animals. On days 10 to 12, two dimensional measurements (width and length) of all tumors were taken using vernier calipers. Tumor weights were calculated from these measurements using the following formula:
Tumor Weight (mg)=Tumor Length (mm) X Tumor Width (mm)^2 /2
(§2) For all data, the tumor weight was rounded to the nearest tenth of a gram for analysis. No group is included in the analysis for therapeutic activity in which deaths attributable to drug toxicity exceeded 30 percent of the treated group.
(§3) In Table 2 which follows, column 1 gives the name of the compound; column 2, the dose level; column 3, the percent inhibition of the tumor; and column 4, the toxic deaths. Drug and control doasges were administered I.P. daily for 10 days.

[3] = Toxic deaths in the X-5563 (multiple myeloma) tumor test; type: in vivo, C3H mice; conditions: I.P. daily for 10 days
Description: as §1, with “formula: […]” for “formula:”
as §2, §3

Row | Compound | IC50 [1] [µg/mL] | Percent Inhibition of Tumor ([2]; 70 mg/kg) [%] | Toxic Deaths ([3]; 70 mg/kg) | Percent Inhibition of Tumor ([2]; 50 mg/kg) [%] | Toxic Deaths ([3]; 50 mg/kg)
1 | CCCCC/C=C\C/C=C\CCCCCCCC(COP(=O)([O-])OCC[N+](C)(C)C)OCC (racemic) [(Z,Z)-(±)-2-Ethoxy-1-[(2-trimethylaminoethoxy)phosphinyloxy]-10,13 nonadecadiene, hydroxy inner salt] | 6 | 31 | 2/10 |  | 
2 | CCCCCCCC/C=C\CCCCCCCC(COP(=O)([O-])OCC[N+](C)(C)C)OCC (racemic) [(Z)-(±)-2-ethoxy-1-[(2-trimethylaminoethoxy)phosphinyloxy]-10-nonadecene, hydroxy inner salt] | 1.6 |  |  | 47 | 1/10
3 | CCCCC/C=C\C/C=C\CCCCCCCC(COP(=O)([O-])OCC[N+](C)(C)C)OC (racemic) [(Z,Z)-(±)-2-Methoxy-1-[(2-trimethylaminoethoxy)phosphinyloxy]-10,13-nonadecadiene, hydroxy inner salt] | 4.2 |  |  |  | 
